Tests used:
Lin28b ZKD [1] = biological target: T1, Lin28b ZKD (Homo sapiens, UniProt Q6ZN17); assay: Fluorescence polarization (FP) assay, Lin28b ZKD:pre-let-7d interaction; assay type: binding; conditions: FP / EMSA
T1 sequence (Q6ZN17 127-166 limits assumed): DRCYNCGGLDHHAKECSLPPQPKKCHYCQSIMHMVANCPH
Procedure: We conducted two biochemical assays, FP and EMSA, to validate the predicted compounds. To optimize the FP assays, we performed a series of titrations using: (1) FAM-labeled pre-let-7d RNA probe, (2) Lin28b ZKD protein, and (3) non-labeled pre-let-7 probe as a competitor (Fig. 2A). These assays yielded the optimal concentrations required for the subsequent FP validation assays, namely 10 nM for the pre-let-7d probe and 1 μM for Lin28b ZKD protein. The FP signal from the free probe was set as 0%, while the signal from the probe-ZKD complex in the absence of compounds was set as 100%. C1632 was used as a control Lin28 inhibitor (Fig. 2B). […] Since the docking pocket is almost identical between Lin28a and Lin28b homologs, we repeated the FP assays using Lin28a ZKD (Figure S2).
The fluorescein amidites (FAM)-tagged pre-Let-7d probe with the sequence of […] was purchased from Integrated DNA Technologies (IDT). The probe at the concentrations ranging from 1 nM to 50 uM was incubated with Lin28B (ZKD) or Lin28 (CSD+ZKD) to a final volume of 30 uL at room temperature for 20 min. To read the fluorescence, a TECAN 500 machine was used. Fluorescence polarization was calculated using the following equation:
P=(Fparrallel−Fperpendicular)/(Fparrallel+FperpendicularP)
where P is the fluorescence polarization reading, F parallel is the fluorescence intensity acquired from the parallel excitation plane, and F perpendicular is the fluorescence intensity acquired from the perpendicular direction of the excitation plane. The total fluorescence intensity is estimated using the following equation:
F=Fparallel+2FperpendicularF.
All the raw FP signal data from the TECAN 500 FP results were analyzed using Prism 8.0 (GraphPad, San Diego, CA, USA); normalized curves were plotted and IC50 values were estimated. All FP data were repeated three to five times.
Figure S1. Lin28b ZKD protein was incubated with the indicated compounds at the concentration of 0, 0.1, 0.2, 0.5, 1, 2, 5, 10, 20, 50, 100, and 200uM. FP signals were measured and plotted relative to that from vehicle.

Lin28b ZKD [2] = biological target: T1, Lin28b ZKD; assay: 1H-15N HSQC NMR of Lin28b-ZKD with ligand; assay type: binding; conditions: ligand added in 20:1 molar ratio
Description: Given that Ln268 is derived from the parent compound Ln15, we wanted to assess whether the improved properties of Ln268 were linked to a potential difference in its interaction with Lin28 ZKD. To this end, we collected ^1H-^15N HSQC spectra of Lin28b-ZKD, Lin28b-ZKD + Ln15, and Lin28b-ZKD + Ln268. RNA binding proteins (RBPs) commonly have binding pockets that are intrinsically disordered, as evidenced by the narrow chemical shift dispersion observed in the HQSC of Lin28b-ZKD alone (Fig. 3D). Addition of either Ln15 or Ln268 led to changes in the chemical shifts of ca. 20 residues, consistent with the change in conformation of the Lin28b-ZKD segment which encompasses residues 137–160 (three of which are prolines) upon RNA binding (Fig. 3E). Although many of the peak shifts are the same for the Ln15 and Ln268 containing samples, there are around 7 resonances where the peaks disappear in the case of Ln268.
NMR spectra were recorded at 5 °C on a Bruker Avance III 850 MHz spectrometer, equipped with a TCI cryoprobe. ^1H-^15N HSQC experiments were recorded on ^13C/^15N-labeled Lin28b ZKD (230 μM), in 20 mM d-Tris-HCl (pH 7.5), 100 mM NaCl, 1 mM d-DTT, 0.02% NaN3, 0.25 mM ZnCl2 + 1 mM IDA, and 10% D2O, to which unlabeled Ln15 and Ln268 was added, respectively. The time domain matrix was 4k by 512. Four scans were acquired per t1 increment. Spectra were processed and plotted using Topspin to a final size of 8k by 1k. For the overlays, the levels were set to the same base level in all cases, with a multiplication factor of 1.1.

TOV-112D cells = assay: Cell proliferation (Incucyte), TOV-112D; assay type: cell-based; conditions: Lin28a/Lin28b-positive
Description: To further evaluate whether the suppressive effects of Ln268 are specific to Lin28-positive cancer cells, we compared cell growth rates of DuNE (Lin28b-positive line) and Du145 (Lin28b-negative line), both of which are Lin28a-negative. DuNE has the same genomic background with Du145 except for the transduction of the SRRM4 gene. […] Furthermore, Ln268 had no impact on the cell growth of DuNE(KO) cells, in which the Lin28b gene was knocked out by CRISPR (Fig. 5C). […] We also tested several ovarian and endometrial cancer cell lines with different Lin28a and Lin28b expression profiles (Fig. 5E).

For `O=c1[nH]c(Nc2ccc(F)cc2O)cs1` [Ln268], the “activity in protein-based assays” value (Lin28b ZKD [1]) was “performed less effectively than Ln15”, the “residues of Lin28b-ZKD with changed chemical shifts (1H-15N HSQC)” value (Lin28b ZKD [2]) was “ca. 20 residues” and the “resonances of Lin28b-ZKD whose peaks disappear (1H-15N HSQC)” value (Lin28b ZKD [2]) was “around 7 resonances”. For the same molecule, the “effect on growth of TOV-112D cells” value (TOV-112D cells) was “suppressed the growth”.
